Source: article PMC8443589, “Modelling human liver fibrosis in the context of non-alcoholic steatohepatitis using a microphysiological system” (Communications Biology, 2021)
Several values for one entry are separate records, joined by “and”; a condition that tells them apart may be missing. Identical values can stand only once.

Tests used:
[1] = Protein binding in HEP-Fat cell culture media by rapid equilibrium dialysis; type: in vitro ADME; conditions: for fraction unbound: HEP-Fat cell culture media, HEP-FAT media, rapid-equilibrium dialysis
Method: Despite many on-going clinical trials, there is still no approved treatment for NASH, but emerging data provide confidence that NASH is a pharmacologically responsive disease. […] First, we set out to determine an optimal dosing strategy for each of the treatments based on an assessment of their physicochemical properties and pharmacokinetic behaviour within the MPS device (Table 1). Non-specific binding to the MPS device was determined after a 72 h incubation with each candidate drug at 1 μM (Table 1). Both candidate drugs were calculated to have less than 0.1% loss as a consequence of non-specific binding to the MPS device (Table 1). […] Because the hepatocytes within the MPS device are metabolically competent, we evaluated the half-life for each candidate drug in NASH microtissues.
To determine the metabolic turnover of obeticholic acid and elafibranor in the MPS platform, both compounds were incubated with liver microtissues for 48 h starting at 1 µM and media samples taken at regular intervals (AdooQ Bioscience, UK). The presence of each compound in the cell culture medium was quantified by liquid chromatography-tandem mass spectrometry (LC-MS/MS). Samples were separated using a Waters Acquity UPLC system with an ACE Excel C18-AR column and analysed on a Waters TQ-S Micro mass spectrometer against quantitative standard curves. Both compounds were also assessed for protein binding in HEP-Fat media using rapid equilibrium dialysis (RED) and quantified using the same LC-MS/MS methodology.

[2] = test system: liver MPS NASH model (PHH, KC and HSC co-cultures, high fat); assay: Quantitative confocal imaging of collagen type 1 and alpha SMA in liver MPS NASH model dosed with OCA or ELF; type: cell-based, human; conditions: for Collagen type 1 fluroscent marker intensity: per MPS scaffold; for reduction of collagen-1 deposition / reduction of α-SMA expression: fat only NASH model, 10 days; for reduction of α-SMA expression: concentration-dependent
Method: Fig. 3 Obeticholic acid and Elafibranor both modulate inflammatory and fibrosis phenotype in liver MPS NASH model and phenotype can additionally be reversed with dietary changes. PHH, KC and HSC co-cultures were cultured in the MPS platform under high fat conditions and dosed with varying concentrations of Obeticholic acid (OCA) and Elafibranor (ELF) QD or vehicle control (control) for 10 days, following an initial 4-day pre-culture phase. a The secreted cytokine profile from liver microtissues was compared by Luminex to determine the effects of each compound on the inflammatory profile of the liver with samples analysed at day 8 and 14 of the culture. Data were normalised by Z-transformation to allow comparison of all analytes and presented as a heatmap. b The expression of fibrosis-associated genes was analysed in total RNA from control, OCA and ELF treated liver microtissues (highest concentration for each compound) using Human Fibrosis RT2 Profiler PCR Arrays. Gene expression changes are expressed as a fold change over control. c Liver microtissues were stained for collagen-type I, α-SMA, nuclei (DAPI - blue), phalloidin (green) and imaged by confocal microscopy. Representative images are shown and scale bars 200 µm. d Staining of microtissue was quantified by measuring total fluorescence intensity throughout individual microtissues, each data point represents an average of all the microtissues imaged within an MPS scaffold (min 8, max 20 microtissues). e PHH, KC and HSC co-cultures were cultured in the MPS platform under high fat or lean conditions for 30 days. Cultures either remained in the same type of media throughout or were switched at day 15 from fat media to lean media (Fat -> Lean). Cell culture medium samples were analysed for the presence of IL-6, f MCP-1, g TIMP-1, which were measured by ELISA. h Microtissues were stained with Oil-Red O to determine fat loading during culture period, total stain was quantified by absorbance at 510 nm. All datapoints shown, either as box-whisker plots highlighting mean and min-max or with error bars highlighting means ± SD. All data from a minimum of three independent cultures; statistical comparisons made to control samples unless other comparison shown.
To visualise fibrosis proteins in the liver microtissues, scaffolds were fixed for 15 min in 4% paraformaldehyde following culture in the MPS platform. They were permeabilized with 0.1% Triton-X and blocked with 2% BSA before staining overnight at 4 °C with antibodies against alpha SMA (Abcam, UK - ab7817) and collagen 1 (Rockland, USA—600 401 103 0.5). Scaffolds were then stained with fluorescently conjugated secondary antibodies (Alexa-Fluor 555 goat anti-rabbit #A21429; Alexa-Fluor 647 donkey anti-rabbit #A31573; Alexa-Fluor 555 goat anti-mouse #A21424; Alexa-Fluor 647 goat anti-mouse #A21235 (Thermofisher, UK) along with Phalloidin 488 (Thermofisher, UK) and Hoechst 33342 (Invitrogen) for 1.5 h at room temperature. Scaffolds were washed three times with PBS and mounted onto glass microscope slides with anti-fade mounting medium. Confocal fluorescent images of the stained scaffolds were captured using a Cell Voyager 7000 (CV700, Yokogawa Inc.) automated confocal microscope. Image acquisition was controlled using the SearchFirst functionality of the Wako Software suite (Fujifilm Wako Automation). A workflow was designed to automatically locate and acquire images of each scaffold in a consistent and unbiased manner (Supp. Fig. 1). The workflow consisted of a first round of acquisition where the entire slide is imaged at low (4×) magnification capturing the Hoechst channel only. Images were automatically stitched together using a MATLAB script and eight regions of interest (ROI) were identified on each scaffold (same array of ROI per scaffold). XY coordinates were fed back to the microscope which subsequently imaged each ROI with full Z stacks obtained at ×10 magnification, 120 µm stack with a 5 µm slice interval. […]

[3] = Non-specific compound binding: drug recovery in blank liver MPS plates (no cells), LC-MS; type: in vitro ADME; conditions: blank liver MPS platform/plates, vs input media, read-out: Drug recovery incubation in blank MPS platform (no cells)

fraction unbound [1] | Protein binding within the fat culture medium [1] | recovery at 1 µM [3] [%] | SMILES | Collagen type 1 fluroscent marker intensity ([2]; ELF 13 uM QD 10 days, listed as ELF) | reduction of collagen-1 deposition [2] | reduction of α-SMA expression [2] | Collagen type 1 fluroscent marker intensity ([2]; OCA 0.25 uM QD 10 days, listed as OCA) | Collagen type 1 fluroscent marker intensity ([2]; OCA 5 uM QD 10 days, listed as OCA)
0.02 | highly protein-bound | 97 | CSc1ccc(C(=O)/C=C/c2cc(C)c(OC(C)(C)C(=O)O)c(C)c2)cc1 [Elafibranor] | 1659.63 and 1182.93 and 1579.82 and 1137.61 and 1507.1 | up to 35% | up to 50% |  | 
< 0.01 | highly protein-bound | 110 | CC[C@H]1[C@@H](O)[C@@H]2[C@H](CC[C@]3(C)[C@@H]([C@H](C)CCC(=O)O)CC[C@@H]23)[C@@]2(C)CC[C@@H](O)C[C@@H]12 [Obeticholic acid] |  | up to 35% | up to 50% | 2993.61 and 2644.36 and 2590.02 and 1579.53 | 1471.67 and 1379.09 and 1471.56 and 1817.03 and 1176.35 and 1231.08
